Test results from patent publication US12516293B2, “Reagents and methods with Wnt agonists and bioactive lipids for generating and expanding cardiomyocytes” (The Board of Trustees of the Leland Stanford Junior …, priority 2018, dated 2026).

What was measured:
Format in all cases: cell-based, human
TCF/LEF [1] = test: TOPFlash TCF/LEF luciferase reporter in day 12 hiPSC-CMs; settings: P0 hiPSC-CMs, 24 hours
Experimental: Day 12 hiPSC-CMs were transfected for 48h with a TCF reporter plasmid (TOPflash M50, Addgene) or the mutant reporter plasmid (TOPflash M51, Addgene) and the use of Lipofectamine 3000 (Invitrogen). 72h after transfection cells were treated with various small molecules for 24h. Cells were lysed and mixed with luciferase substrate (Promega) and the firefly luciferase expression was measured with a 96-well micro plate reader (Fisher).

[2] = system: AKT1/2/3 and other kinases; test: Phospho-kinase array and western blot in CHIR-treated hiPSC-CMs
Experimental: Kinase phosphorylation levels were screened with a Proteome Profiler Human Phospho-Kinase Array Kit (R&D Systems) containing 43 human kinases and total amounts of 2 proteins. Validation was performed with regular western blotting. Total protein expression was measured with a gel imager (Biorad) and processed with pixel intensity software (Biorad).

hiPSC-CMs [3] = test: Motion-derived contractility of day 30 hiPSC-CMs; settings: day 30 hiPSC-CMs vs control
Source text: These studies illustrate an additional role for S1P/LPA to regulate cell cycle activity in well-differentiated hiPSC-CMs and synergize with β-catenin signaling to increase hiPSC-CM proliferation.

hiPSC-CMs [4] = test: Cell cycle activity in well-differentiated hiPSC-CMs (ki67, pHH3, cell count)
Experimental: To address this, well-differentiated hiPSC-CMs were generated (e.g. day 30 or later) using chemically-defined protocols (Burridge et al. 2014; Churko et al. 2013; Sharma et al. 2015) (Movie S1) and treated them with S1P/LPA or CHIR or both (FIG. 18A). The presence of S1P/LPA receptors in these cells was first validated (FIG. 21). Immunofluorescence staining was then performed for ki67, a marker of cell cycle activity, and phospho Histone H3 (pHH3), a mitosis marker, in cardiac troponin T (TnT) positive cells.

hiPSC-CMs [5] = test: Sarcomere alignment and contractility on micropatterns
Experimental: Cells were plated on soft substrates with micropatterned proteins on top. After 3-6 days of culture high resolution movies (Sony Microscopy) were recorded for at least 10 individual cells per group and motion velocity analysis was processed digitally. After recordings, cells were fixed and used for immunohistochemistry and confocal imaging. Sarcomere alignment was quantified with Image J software. CM maturation is accompanied by the formation of highly structured sarcomere, bi- or multinucleation, and cell cycle exit (Bassat et al., 2017; Bersell et al., 2009; Senyo et al., 2014; Uygur and Lee, 2016). […] To address this, age-matched hiPSC-CMs exposed to media containing DMSO (CTR) were compared to ones that have undergone 3 passages in media containing 2.0 μM CHIR using various phenotypic assays of CM function. To assess sarcomere alignment, CHIR and CTR hiPSC-CMs on 7:1 aspect ratio micropatterns (Ribeiro et al., 2015) were cultured and immunostained with TnT and sarcomeric actinin antibodies.

hiPSC-CMs [6] = test: hiPSC-CM expansion upon serial passaging
hiPSC-CMs [7] = test: Single cell RNA sequencing of day 12 hiPSC-CMs
Experimental: For the single cell gene expression replated hiPSC-CMs were treated at day 12 with DMSO, CHIR99021 or C59 for 24 hours. At day 13 cells were digested with TrypLE Select Enzyme for about 5 minutes and dissociated with gentle pipetting. […] Single cell analysis was performed with the Loupe Cell Browser software. To investigate the global transcriptional changes of hiPSC-CMs in response to gain and loss of Wnt signaling, single cell RNA sequencing was performed in day 12 hiPSC-CMs treated for 24 hours with either DMSO (CTR), CHIR or C59.

TCF/LEF [8] = test: TOPFlash TCF/LEF luciferase reporter in hiPSCs; settings: treatment alone, 2 hours
Experimental: and day 30 hiPSC-CMs were replated in 96-well plates and cultured for 2-3 days before transfection with Lipofectamine (Invitrogen) and TOPFlash (TCF/LEF) luciferase Wnt signaling reporter plasmid (M50, Addgene) at 100 ng/well. After 48 hours, media was changed, and cells were subjected to different treatments for 2 hours before lysis and luciferase (Promega) luminescence was measured with a standard luminescence plate reader. […] It was studied whether S1P/LPA treatment of undifferentiated hiPS cells, either alone or in combination with CHIR, could increase the level of nuclear β-catenin. […] To examine whether the increase in nuclear β-catenin level results in an activation of Wnt signaling at the transcriptional level, hiPSCs were transfected with the previously described TOPFlash luciferase reporter plasmid^23 ([…] et al. 2003). This system provides a proportionate visualization of Wnt transcriptional activity using bioluminescence. Subsequently, the cells were treated with dimethyl sulfoxide (DMSO), CHIR, S1P/LPA, or a combination of S1P/LPA and CHIR. […] When S1P/LPA was combined with CHIR, the TCF/LEF-luciferase activity was further increased to more than 60-fold compared with DMSO control (FIG. 16C).

hiPSC-CMs [9] = test: Real-time PCR / immunostaining of cardiac gene expression in hiPSC-CMs; settings: CHIR treatment, qPCR
Experimental: For quantitative analysis of gene expression, RNA was extracted with a lysis buffer (Qiagen) from hiPSC-CMs and stored at −80° C. Total RNA from each sample was purified from cell lysate using a RNA purification kit (Qiagen). cDNA was made using iScript cDNA synthesis kit (BioRad). Quantitative PCR was performed using a 96-well thermocycler system (Biorad) with SYBR Green substrate (Affymetrix) for 40 cycles. All primers sequences were obtained from the PrimerBank (Massachusetts General Hospital/Harvard Medical School) online database. […] Day 12 hiPSC-CMs were cultured in CHIR continuously for 2 months with serial passaging followed by CHIR withdrawal for an additional month.

hiPSCs = test: hiPSC morphology, cell number and marker expression; settings: 48-hour treatment of hiPSCs, immunostaining and qPCR
Source text: The changes in gene expression was validated after treatment with bioactive lipids or CHIR from the microarray studies with immunostaining and quantitative PCR analysis (FIG. 17D-E).

Cc1c[nH]c(-c2cnc(NCCNc3ccc(C#N)cn3)nc2-c2ccc(Cl)cc2Cl)n1 [CHIR99021]
TCF/LEF activity (TOPFlash) (TCF/LEF [1]): dramatic increase in TCF/LEF activity | phosphorylation of HSP27 and p70S6K ([2]; CHIR): increased phosphorylation | phosphorylation of growth suppressor P27 ([2]; CHIR): subtle increase | AKT1/2/3 phosphorylation at T308 ([2]; screen of 43 kinases, CHIR): significant upregulation | active form of AKT (pAKT T308) ([2]; western blot, CHIR vs DMSO): rapidly increased | beating frequency or contractile force generation (hiPSC-CMs [3]): no significant difference | number of hiPSC-CMs (hiPSC-CMs [4]; treatment alone, 48 hours): increase in cell number | number of bi- or multinucleated cardiomyocytes (hiPSC-CMs [4]; two-day treatment): did not increase the number of bi- or multinucleated cardiomyocytes | sarcomere alignment and organization (hiPSC-CMs [5]; 3 passages in 2.0 μM CHIR vs age-matched CTR): markedly reduced alignment and organization of sarcomeres | contractile force generation (hiPSC-CMs [5]; CHIR-treated vs CTR cells): decreased force generation | increase in the total cell number (hiPSC-CMs [6]; 2.0 μM CHIR from day 12, serial passaging): greater than 100 fold | increase in CM number (hiPSC-CMs [6]; 2.0 μM CHIR from day 12, serial passaging, TnT+ cells vs DMSO): greater than 100 fold | cell death (hiPSC-CMs [6]; 2.0 μM CHIR, Caspase 3 staining): without notable cell death | number of passages possible (hiPSC-CMs [6]; 2.0 μM CHIR, DMSO cells cease to proliferate after first passage): up to 5 times | hiPSC-CMs generated from 2 million day 12 hiPSC-CMs (hiPSC-CMs [6]; CHIR treatment with serial passaging): 300-900 million | time to confluence after passaging (hiPSC-CMs [6]; CHIR-treated early passage hiPSC-CMs): 5 to 7 days | TnT purity during expansion (hiPSC-CMs [6]; expansion of beating hiPSC-CMs): > 95% | CM purity with each passage (TnT+) (hiPSC-CMs [6]; flow cytometry, vs DMSO which decreased): maintain, if not slightly enrich | cardiac progenitor markers Isl1 and MESP1/2 expression (hiPSC-CMs [7]; 24 hours CHIR): did not result in increased expression | Wnt signaling target genes and cardiogenic transcription factors expression (hiPSC-CMs [7]; 24 hours, CHIR vs CTR or C59): highly upregulated | mature cardiac genes expression (hiPSC-CMs [7]; 24 hours, CHIR vs CTR or C59): dramatically downregulated | TCF/LEF-luciferase activity, increase vs DMSO control (TCF/LEF [8]): ~40 fold | Wnt signaling target gene expression (Axin2, LEF, CCND2) (hiPSC-CMs [9]): induction of Wnt signaling target gene expression | markers of hiPSC-CM maturation (MYL2, MYH7, MYOM1) (hiPSC-CMs [9]): down-regulated | Brachyury T (Bry T) expression (hiPSCs): increase both VIM and Brachyury T (Bry T) expression | VIM expression (hiPSCs): increase both VIM and Brachyury T (Bry T) expression
